From patent publication US20210085640A1, “ACYLATED CATECHIN POLYPHENOLS AND METHODS OF THEIR USE FOR THE TREATMENT OF CANCER” (Flagship Pioneering Innovations V, Inc., priority 2018, published 2021)

Columns and labels:
Assay type in all cases: cell-based
[1] = test system: AGS stomach cancer cells; test: Cancer cell survival (CellTiter-Glo), AGS; settings: 72 h
Summary of the method: (§1)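 Cells were seeded at 4×10^3 cells/well and left overnight at 37 C, 5% CO2, then exposed in triplicate to nine compound concentrations for 72 h. Dosing solutions were made at 10× final (1 μM-10 mM fatty acids, 100 nM-1 mM other compounds). CellTiter-Glo luminescence, normalised to untreated and medium-only wells, gave IC50.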

[2] = test system: T24 bladder cancer cells; test: Cancer cell survival (CellTiter-Glo), T24; settings: Homo sapiens
Summary of the method: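 T24 cells seeded at 4×10^3 cells/well overnight, then exposed 72 h at 37 C, 5% CO2 to nine concentrations in triplicate. Survival measured by CellTiter-Glo luminescence relative to untreated and medium controls; IC50 derived.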

[3] = test system: MCF7 breast cancer cells; test: Cancer cell survival (CellTiter-Glo), MCF7; settings: Homo sapiens, 72 h
Summary of the method: as §1

[4] = test system: HCT 116 colorectal cancer cells; test: Cancer cell survival (CellTiter-Glo), HCT 116; settings: Homo sapiens, HCT 116 cells, 72 h
Summary of the method: as §1

[5] = test system: PC-3 prostate cancer cells; test: Cancer cell survival (CellTiter-Glo), PC-3; settings: Homo sapiens, PC-3 cells, 72 h, read-out: Cell survival at given concentration
Summary of the method: as §1

[6] = test system: Daudi lymphoma cancer cells; test: Cancer cell survival (CellTiter-Glo), Daudi; settings: Homo sapiens, 72 h
Summary of the method: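 Daudi cells (4×10^3/well) were exposed for 72 h at 37 °C to nine concentrations of compound, added as 10× solutions spanning 1 μM–10 mM (fatty acids) or 100 nM–1 mM (others). CellTiter-Glo luminescence gave % survival versus untreated, medium-blank corrected; IC50 derived.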

[7] = test system: A549 lung cancer cells; test: Cancer cell survival (CellTiter-Glo), A549; settings: Homo sapiens, 72 h
Summary of the method: as §1

[8] = test system: A-431 skin cancer cells; test: Cancer cell survival (CellTiter-Glo), A-431; settings: Homo sapiens, A-431 cells, 72 h
Summary of the method: as §1

[9] = 101 nM, read-out: Cell survival at given concentration
[10] = 318 nM, read-out: Cell survival at given concentration
[11] = 316 μM, read-out: Cell survival at given concentration
[12] = 1000 μM, read-out: Cell survival at given concentration
[13] = 1 μM, read-out: Cell survival at given concentration
[14] = 3 μM, read-out: Cell survival at given concentration
[15] = 10 μM, read-out: Cell survival at given concentration
[16] = 32 μM, read-out: Cell survival at given concentration
[17] = 100 μM, read-out: Cell survival at given concentration

## O=c1c(O)c(-c2cc(O)c(O)c(O)c2)oc2cc(O)cc(O)c12 [myricetin]
[1]; [9]
  viability at 0.101 µM: 107%
[1]; [10]
  viability at 0.318 µM: 103%
[1]; 1 μM, Table 10.1, read-out: Cell survival at given concentration
  viability at 1 µM: 110%
[1]; 3 μM, Table 10.1, read-out: Cell survival at given concentration
  viability at 3 µM: 103%
[1]; 10 μM, Table 10.1, read-out: Cell survival at given concentration
  viability at 10 µM: 109%
[1]; 32 μM, Table 10.1, read-out: Cell survival at given concentration
  viability at 32 µM: 111%
[1]; 100 μM, Table 10.1, read-out: Cell survival at given concentration
  viability at 100 µM: 108%
[1]; [11]
  viability at 316 µM: 107%
[1]; [12]
  viability at 1000 µM: 81%
[2]; T-24, 101 nM, 72 h, read-out: Cell survival at given concentration
  viability at 0.101 µM: 101%
[2]; T-24, 318 nM, 72 h, read-out: Cell survival at given concentration
  viability at 0.318 µM: 98%
[2]; T-24, 1 μM, 72 h, read-out: Cell survival at given concentration
  viability at 1 µM: 106%
[2]; T-24, 3 μM, 72 h, read-out: Cell survival at given concentration
  viability at 3 µM: 102%
[2]; T-24, 10 μM, 72 h, read-out: Cell survival at given concentration
  viability at 10 µM: 96%
[2]; T-24, 32 μM, 72 h, read-out: Cell survival at given concentration
  viability at 32 µM: 9%
[2]; T-24, 100 μM, 72 h, read-out: Cell survival at given concentration
  viability at 100 µM: 0%
[2]; T-24, 316 μM, 72 h, read-out: Cell survival at given concentration
  viability at 316 µM: 0%
[2]; T-24, 1000 μM, 72 h, read-out: Cell survival at given concentration
  viability at 1000 µM: 0%
[2]; T-24, 72 h, Table 3.1, read-out: 1050
  IC50: 19.1 µM
[3]; [9]
  viability at 0.101 µM: 105%
[3]; [10]
  viability at 0.318 µM: 95%
[3]; [13]
  viability at 1 µM: 104%
[3]; [14]
  viability at 3 µM: 100%
[3]; [15]
  viability at 10 µM: 99%
[3]; [16]
  viability at 32 µM: 103%
[3]; [17]
  viability at 100 µM: 94%
[3]; [11]
  viability at 316 µM: 99%
[3]; [12]
  viability at 1000 µM: 87%
[3]; Table 5.1
  IC50: > 1000 µM
[4]; [9]
  viability at 0.101 µM: 101%
[4]; [10]
  viability at 0.318 µM: 104%
[4]; [13]
  viability at 1 µM: 107%
[4]; [14]
  viability at 3 µM: 105%
[4]; [15]
  viability at 10 µM: 102%
[4]; [16]
  viability at 32 µM: 31%
[4]; [17]
  viability at 100 µM: 0%
[4]; [11]
  viability at 316 µM: 0%
[4]; [12]
  viability at 1000 µM: 0%
[4]; Table 6.1
  IC50: 26.5 µM
[5]; 101 nM
  viability at 0.101 µM: 103%
[5]; 318 nM
  viability at 0.318 µM: 99%
[5]; 1 μM
  viability at 1 µM: 103%
[5]; 3 μM
  viability at 3 µM: 100%
[5]; 10 μM
  viability at 10 µM: 105%
[5]; 32 μM
  viability at 32 µM: 101%
[5]; 100 μM
  viability at 100 µM: 102%
[5]; 316 μM
  viability at 316 µM: 101%
[5]; 1000 μM
  viability at 1000 µM: 88%
[6]; [9]
  viability at 0.101 µM: 104%
[6]; [10]
  viability at 0.318 µM: 103%
[6]; [13]
  viability at 1 µM: 104%
[6]; [14]
  viability at 3 µM: 104%
[6]; [15]
  viability at 10 µM: 105%
[6]; [16]
  viability at 32 µM: 25%
[6]; [17]
  viability at 100 µM: 0%
[6]; [11]
  viability at 316 µM: 0%
[6]; [12]
  viability at 1000 µM: 0%
[6]; Table 4.1
  IC50: 28.1 µM
[7]; [9]
  viability at 0.101 µM: 100%
[7]; [10]
  viability at 0.318 µM: 100%
[7]; [13]
  viability at 1 µM: 99%
[7]; [14]
  viability at 3 µM: 104%
[7]; [15]
  viability at 10 µM: 101%
[7]; [16]
  viability at 32 µM: 99%
[7]; [17]
  viability at 100 µM: 99%
[7]; [11]
  viability at 316 µM: 98%
[7]; [12]
  viability at 1000 µM: 79%
[7]; Table 7.1
  IC50: > 1000 µM
[8]; [9]
  viability at 0.101 µM: 102%
[8]; [10]
  viability at 0.318 µM: 100%
[8]; [13]
  viability at 1 µM: 102%
[8]; [14]
  viability at 3 µM: 102%
[8]; [15]
  viability at 10 µM: 100%
[8]; [16]
  viability at 32 µM: 96%
[8]; [17]
  viability at 100 µM: 87%
[8]; [11]
  viability at 316 µM: 87%
[8]; [12]
  viability at 1000 µM: 78%
[8]; Table 9.1
  IC50: > 1000 µM
